The record followed here is patent publication US20110152313A1 (MACQUARIE UNIVERSITY, priority 2008, published 2011).

The structures appear in SMILES notation.

What all share (test): kinase binding screen (kinase-tagged T7 phage, qPCR), % Ctrl
Background: In qPCR the cycle at which signal appears reflects the starting amount.

The target of one assay is AAK1 (Homo sapiens, UniProt Q2M2I8). As to the method:
(§1) Percentage kinase inhibition at a set concentration was performed by methods well known in the prior art (Fabian, M. A. et al. Nat. Biotechnol. 2005, 23, 329; Karaman et al. (2008) Nat. Biotechnol. […], 26, 127). Briefly, kinase-tagged T7 phage strains were grown in parallel in 24-well blocks in an E. coli host derived from the BL21 strain. E. coli were grown to log-phase and infected with T7 phage from a frozen stock (multiplicity of infection=0.4) and incubated with shaking at 32° C. until lysis (90-150 minutes). The lysates were centrifuged (6,000×g) and filtered (0.2 μm) to remove cell debris. […] The liganded beads were blocked with excess biotin and washed with blocking buffer (SeaBlock (Pierce); 1% BSA, 0.05% Tween 20, 1 mM DTT) to remove unbound ligand and to reduce non-specific phage binding. […] Test compounds were prepared as 40× stocks in 100% DMSO and directly diluted into the assay. All reactions were performed in polypropylene 384-well plates in a final volume of 0.04 mL. […] The kinase concentration in the eluates was measured by qPCR.

The target in a further assay is DYRK1A (Homo sapiens, UniProt Q13627). As to the method: as §1
A further assay deals with T1, GRK1 (Homo sapiens, UniProt Q15835).
T1 sequence (Q15835 1-563): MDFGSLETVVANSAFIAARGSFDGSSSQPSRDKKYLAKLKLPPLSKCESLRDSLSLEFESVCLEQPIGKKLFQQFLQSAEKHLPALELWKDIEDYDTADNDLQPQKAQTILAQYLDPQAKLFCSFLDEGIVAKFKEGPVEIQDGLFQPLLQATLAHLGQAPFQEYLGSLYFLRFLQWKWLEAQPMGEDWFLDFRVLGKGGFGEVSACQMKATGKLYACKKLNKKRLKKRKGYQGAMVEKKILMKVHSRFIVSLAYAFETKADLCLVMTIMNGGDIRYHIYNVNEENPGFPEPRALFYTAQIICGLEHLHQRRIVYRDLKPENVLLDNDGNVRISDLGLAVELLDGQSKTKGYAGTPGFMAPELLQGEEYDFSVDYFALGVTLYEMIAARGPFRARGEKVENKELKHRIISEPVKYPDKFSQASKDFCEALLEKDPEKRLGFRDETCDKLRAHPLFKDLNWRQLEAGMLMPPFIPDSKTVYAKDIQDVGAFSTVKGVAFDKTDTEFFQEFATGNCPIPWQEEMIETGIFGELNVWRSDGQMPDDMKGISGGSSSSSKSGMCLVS
How it is done: as §1

Another assay addresses SBK1 (Homo sapiens, UniProt Q52WX2). How it is done:
as §1

The target of a further assay is YANK2 (Homo sapiens, UniProt Q9NY57). As to the method: as §1
Another assay has as its target T2, PLK4 (Homo sapiens, UniProt O00444).
T2 sequence (O00444 1-970): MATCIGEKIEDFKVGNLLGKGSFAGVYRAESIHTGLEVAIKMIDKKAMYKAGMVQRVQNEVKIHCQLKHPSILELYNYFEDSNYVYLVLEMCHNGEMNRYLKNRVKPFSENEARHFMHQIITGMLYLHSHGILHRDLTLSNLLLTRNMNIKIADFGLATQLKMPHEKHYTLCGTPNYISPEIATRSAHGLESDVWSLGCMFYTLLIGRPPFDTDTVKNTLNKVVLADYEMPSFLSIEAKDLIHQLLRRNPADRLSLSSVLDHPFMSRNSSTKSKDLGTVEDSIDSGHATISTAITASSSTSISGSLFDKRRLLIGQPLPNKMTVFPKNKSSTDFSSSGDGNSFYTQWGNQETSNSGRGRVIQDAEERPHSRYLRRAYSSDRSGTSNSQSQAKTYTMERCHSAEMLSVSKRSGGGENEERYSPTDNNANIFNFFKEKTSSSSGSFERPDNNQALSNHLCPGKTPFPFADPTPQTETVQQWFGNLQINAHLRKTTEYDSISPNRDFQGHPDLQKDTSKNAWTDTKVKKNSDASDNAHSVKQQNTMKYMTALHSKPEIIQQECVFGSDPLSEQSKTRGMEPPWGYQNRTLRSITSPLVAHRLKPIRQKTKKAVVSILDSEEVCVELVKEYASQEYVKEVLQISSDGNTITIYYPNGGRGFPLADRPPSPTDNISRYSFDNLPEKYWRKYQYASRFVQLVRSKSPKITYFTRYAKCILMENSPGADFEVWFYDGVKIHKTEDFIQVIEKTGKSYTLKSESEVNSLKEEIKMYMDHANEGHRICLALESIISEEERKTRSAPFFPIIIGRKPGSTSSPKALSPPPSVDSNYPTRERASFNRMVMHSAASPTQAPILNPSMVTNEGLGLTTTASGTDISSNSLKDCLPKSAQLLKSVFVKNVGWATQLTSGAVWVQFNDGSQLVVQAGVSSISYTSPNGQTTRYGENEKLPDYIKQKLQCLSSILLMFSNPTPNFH
How it is done: as §1

The target in the next assay is CAMK1G (Homo sapiens, UniProt Q96NX5). As to the method:
as §1

A further assay addresses MKNK2 (Homo sapiens, UniProt Q9HBH9). As to the method:
as §1

In another assay the target is CAMKK1 (Homo sapiens, UniProt Q8N5S9). How it is done: as §1
Another assay deals with CAMK2D (Homo sapiens, UniProt Q13557). How it is done:
as §1

For a further assay, the target named is PIK4CB (Homo sapiens, UniProt Q9UBF8). As to the method: as §1
PIK4CB, sequence (Q9UBF8 whole entry, species assumed): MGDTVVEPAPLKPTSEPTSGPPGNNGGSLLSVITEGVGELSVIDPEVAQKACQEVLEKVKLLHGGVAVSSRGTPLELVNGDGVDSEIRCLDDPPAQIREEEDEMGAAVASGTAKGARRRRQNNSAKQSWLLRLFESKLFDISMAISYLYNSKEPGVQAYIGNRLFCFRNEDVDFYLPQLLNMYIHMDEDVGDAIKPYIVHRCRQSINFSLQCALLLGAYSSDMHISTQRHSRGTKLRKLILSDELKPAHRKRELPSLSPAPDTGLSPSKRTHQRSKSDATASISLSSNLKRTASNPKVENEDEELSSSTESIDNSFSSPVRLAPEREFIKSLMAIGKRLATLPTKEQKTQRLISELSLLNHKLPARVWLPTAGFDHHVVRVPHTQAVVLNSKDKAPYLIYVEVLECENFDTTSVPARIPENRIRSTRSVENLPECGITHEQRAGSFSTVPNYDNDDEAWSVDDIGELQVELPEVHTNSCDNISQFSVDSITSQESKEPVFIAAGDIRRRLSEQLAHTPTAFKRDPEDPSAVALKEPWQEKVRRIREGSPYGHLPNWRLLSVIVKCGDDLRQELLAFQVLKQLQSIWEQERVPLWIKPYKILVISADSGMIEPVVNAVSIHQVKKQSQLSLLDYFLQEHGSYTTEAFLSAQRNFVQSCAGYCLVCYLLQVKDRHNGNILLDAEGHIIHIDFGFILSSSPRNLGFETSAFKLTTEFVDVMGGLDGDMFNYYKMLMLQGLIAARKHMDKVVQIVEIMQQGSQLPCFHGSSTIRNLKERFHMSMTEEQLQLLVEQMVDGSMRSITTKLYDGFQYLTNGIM

CAMKK1, sequence (Q8N5S9 whole entry): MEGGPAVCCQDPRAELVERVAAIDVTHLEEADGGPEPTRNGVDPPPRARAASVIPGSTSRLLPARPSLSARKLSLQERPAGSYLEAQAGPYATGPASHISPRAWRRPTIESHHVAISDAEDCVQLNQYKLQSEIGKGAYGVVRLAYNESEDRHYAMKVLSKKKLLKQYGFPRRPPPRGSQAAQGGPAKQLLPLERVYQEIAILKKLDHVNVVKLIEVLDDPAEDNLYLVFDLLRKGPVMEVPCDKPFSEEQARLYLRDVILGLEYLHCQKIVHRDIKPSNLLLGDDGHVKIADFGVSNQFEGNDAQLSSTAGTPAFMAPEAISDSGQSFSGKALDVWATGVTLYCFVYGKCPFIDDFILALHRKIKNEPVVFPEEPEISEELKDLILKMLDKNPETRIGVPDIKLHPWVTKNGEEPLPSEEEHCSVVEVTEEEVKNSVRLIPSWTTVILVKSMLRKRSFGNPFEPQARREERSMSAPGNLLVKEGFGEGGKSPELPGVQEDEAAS
SBK1, sequence (Q52WX2 whole entry): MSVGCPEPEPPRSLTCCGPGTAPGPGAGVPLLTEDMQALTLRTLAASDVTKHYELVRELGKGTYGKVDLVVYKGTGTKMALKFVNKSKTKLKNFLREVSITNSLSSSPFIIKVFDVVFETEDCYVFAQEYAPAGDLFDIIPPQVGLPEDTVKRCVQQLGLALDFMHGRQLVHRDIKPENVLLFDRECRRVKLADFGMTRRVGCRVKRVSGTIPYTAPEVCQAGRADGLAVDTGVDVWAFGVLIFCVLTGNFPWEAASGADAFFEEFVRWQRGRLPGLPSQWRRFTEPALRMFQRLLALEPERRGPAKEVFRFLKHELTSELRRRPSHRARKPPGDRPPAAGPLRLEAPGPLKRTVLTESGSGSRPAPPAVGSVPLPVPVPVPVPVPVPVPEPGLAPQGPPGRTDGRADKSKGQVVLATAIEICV
CAMK2D, sequence (Q13557 whole entry): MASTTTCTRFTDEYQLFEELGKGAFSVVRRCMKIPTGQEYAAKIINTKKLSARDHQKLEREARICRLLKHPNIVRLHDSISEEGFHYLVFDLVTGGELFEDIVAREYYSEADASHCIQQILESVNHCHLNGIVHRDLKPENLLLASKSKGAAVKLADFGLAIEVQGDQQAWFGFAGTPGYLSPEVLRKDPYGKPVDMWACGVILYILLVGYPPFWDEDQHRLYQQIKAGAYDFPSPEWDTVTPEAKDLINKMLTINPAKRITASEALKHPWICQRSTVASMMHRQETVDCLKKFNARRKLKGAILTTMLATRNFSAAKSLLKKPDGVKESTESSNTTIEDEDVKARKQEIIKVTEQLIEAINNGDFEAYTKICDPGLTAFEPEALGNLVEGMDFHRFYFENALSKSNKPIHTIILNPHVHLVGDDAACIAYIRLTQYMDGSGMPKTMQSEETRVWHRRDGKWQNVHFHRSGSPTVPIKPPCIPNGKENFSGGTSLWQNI
MKNK2, sequence (Q9HBH9 whole entry, species assumed): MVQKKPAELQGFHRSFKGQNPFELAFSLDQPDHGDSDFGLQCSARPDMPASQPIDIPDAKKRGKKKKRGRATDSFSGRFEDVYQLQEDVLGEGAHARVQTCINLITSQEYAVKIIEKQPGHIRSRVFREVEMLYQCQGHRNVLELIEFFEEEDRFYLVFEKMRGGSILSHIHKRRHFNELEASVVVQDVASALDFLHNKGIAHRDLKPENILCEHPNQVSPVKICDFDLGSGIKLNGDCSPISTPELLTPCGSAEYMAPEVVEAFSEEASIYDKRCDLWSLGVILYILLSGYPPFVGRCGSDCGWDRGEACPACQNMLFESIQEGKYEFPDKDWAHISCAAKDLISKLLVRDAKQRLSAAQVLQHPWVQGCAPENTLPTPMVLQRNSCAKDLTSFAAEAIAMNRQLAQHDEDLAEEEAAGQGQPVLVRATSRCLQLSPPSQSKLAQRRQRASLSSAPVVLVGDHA
AAK1, sequence (Q2M2I8 whole entry): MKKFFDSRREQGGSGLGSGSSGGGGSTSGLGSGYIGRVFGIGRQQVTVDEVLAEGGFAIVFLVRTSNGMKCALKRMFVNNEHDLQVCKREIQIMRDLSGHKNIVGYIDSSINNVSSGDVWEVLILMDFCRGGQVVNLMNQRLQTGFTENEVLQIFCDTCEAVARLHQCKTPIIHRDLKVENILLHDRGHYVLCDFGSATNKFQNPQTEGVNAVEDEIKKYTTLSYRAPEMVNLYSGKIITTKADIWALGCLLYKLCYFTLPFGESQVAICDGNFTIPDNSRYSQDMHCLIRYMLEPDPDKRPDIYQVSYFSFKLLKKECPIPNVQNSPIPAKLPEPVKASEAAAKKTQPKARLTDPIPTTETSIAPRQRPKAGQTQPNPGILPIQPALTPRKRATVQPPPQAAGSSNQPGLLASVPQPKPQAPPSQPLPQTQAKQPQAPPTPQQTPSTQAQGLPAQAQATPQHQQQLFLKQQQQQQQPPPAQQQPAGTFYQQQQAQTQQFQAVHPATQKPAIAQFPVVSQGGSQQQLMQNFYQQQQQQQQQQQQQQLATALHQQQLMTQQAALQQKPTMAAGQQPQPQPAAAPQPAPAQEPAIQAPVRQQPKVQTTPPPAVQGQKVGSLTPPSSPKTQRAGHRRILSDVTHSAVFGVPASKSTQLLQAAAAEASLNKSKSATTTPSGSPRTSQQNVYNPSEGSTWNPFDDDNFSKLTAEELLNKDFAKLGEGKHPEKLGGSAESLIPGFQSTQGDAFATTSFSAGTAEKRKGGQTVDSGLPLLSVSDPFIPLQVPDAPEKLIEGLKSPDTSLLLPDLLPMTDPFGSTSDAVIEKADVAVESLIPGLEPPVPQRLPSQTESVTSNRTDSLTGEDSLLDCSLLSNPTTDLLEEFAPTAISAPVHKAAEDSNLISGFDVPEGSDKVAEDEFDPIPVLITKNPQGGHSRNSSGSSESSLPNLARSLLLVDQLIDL
CAMK1G, sequence (Q96NX5 whole entry): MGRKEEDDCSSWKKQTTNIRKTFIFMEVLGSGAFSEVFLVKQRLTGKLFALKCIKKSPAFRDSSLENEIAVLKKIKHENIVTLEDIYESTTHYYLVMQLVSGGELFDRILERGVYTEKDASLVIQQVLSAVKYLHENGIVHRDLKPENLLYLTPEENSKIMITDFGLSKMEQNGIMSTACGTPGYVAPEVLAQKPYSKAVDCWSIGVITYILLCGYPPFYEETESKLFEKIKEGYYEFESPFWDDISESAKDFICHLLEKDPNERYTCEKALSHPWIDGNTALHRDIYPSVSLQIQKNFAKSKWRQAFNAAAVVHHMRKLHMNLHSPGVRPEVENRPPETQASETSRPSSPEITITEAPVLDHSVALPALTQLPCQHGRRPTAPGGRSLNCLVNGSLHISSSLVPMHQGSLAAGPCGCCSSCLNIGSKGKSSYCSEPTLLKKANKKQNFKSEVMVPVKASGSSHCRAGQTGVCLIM
YANK2, sequence (Q9NY57 whole entry): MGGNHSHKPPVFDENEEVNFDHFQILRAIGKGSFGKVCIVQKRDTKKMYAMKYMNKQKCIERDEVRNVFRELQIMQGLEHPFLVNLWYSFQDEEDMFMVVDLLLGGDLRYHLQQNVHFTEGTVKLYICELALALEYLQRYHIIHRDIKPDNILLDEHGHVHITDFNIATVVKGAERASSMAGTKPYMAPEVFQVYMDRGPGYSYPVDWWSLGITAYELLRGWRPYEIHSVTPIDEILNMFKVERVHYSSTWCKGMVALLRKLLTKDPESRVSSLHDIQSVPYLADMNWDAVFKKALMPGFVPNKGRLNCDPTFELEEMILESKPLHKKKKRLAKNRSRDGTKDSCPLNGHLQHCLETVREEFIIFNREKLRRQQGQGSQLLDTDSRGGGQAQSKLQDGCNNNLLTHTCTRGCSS

As usually defined, the remaining activity is the signal under treatment as a percentage of the control signal. High values mean a small loss of activity, low ones a large loss of activity. Regarding `Nc1nc2c(-c3ccccn3)nccc2[nH]1` [drawing 35, 4-(pyrid-2-yl)-1H-imidazo[4,5-c]pyridin-2-amine], the remaining activity at 1 µM at AAK1 stood at 27%; at DYRK1A it was 36%; on GRK1, 49%; at SBK1 it was 53%; at YANK2, 89%; at PLK4, 55%. The remaining activity at 1 µM on CAMK1G was 43%; at MKNK2, 86%; on CAMKK1, 19%; at CAMK2D, 41%; on PIK4CB it was 88%.

For `Nc1nc2c(-c3cc(Br)c(Br)[nH]3)nccc2[nH]1` [Ageladine A, ageladine A, reference compound], the remaining activity at 1 µM was determined as 90% on AAK1; 38% on DYRK1A; 80% at GRK1; 87% at SBK1; 93% on YANK2; 81% at PLK4. The remaining activity at 1 µM at CAMK1G is 100%; at MKNK2, 2.5%; on CAMKK1, 92%; at CAMK2D it was 100%; on PIK4CB, 66%. In addition, the remaining activity at 10 µM on AAK1 (10 μM) stood at 83%; at DYRK1A (10 μM) it was 4.7%; on GRK1 (10 μM), 85%; at SBK1 (10 μM), 77%; on YANK2 (10 μM), 87%; at PLK4 (10 μM), 65%. The remaining activity at 10 µM was 96% on CAMK1G (10 μM); 69% at MKNK2 (10 μM); 100% at CAMKK1 (10 μM); 82% on CAMK2D (10 μM); 50% on PIK4CB (10 μM).

On to `Nc1nc2c(-c3cnc4ccccc4c3)nccc2[nH]1` [drawing 36, 4-(quinolin-3-yl)-1H-imidazo[4,5-c]pyridin-2-amine], for which the remaining activity at 1 µM at AAK1 was found to be 83%; at DYRK1A, 51%; on GRK1, 86%; on SBK1, 100%; at YANK2 it was 50%; at PLK4, 100%. For the same compound, the remaining activity at 1 µM at CAMK1G is 100%; on MKNK2 it was 100%; at CAMKK1 it was 100%; at CAMK2D, 100%; at PIK4CB it was 37%.
